Source: PMC5843908, “Detection of PRMT1 inhibitors with stopped flow fluorescence” (Signal Transduction and Targeted Therapy, 2018)
Like-named read-outs stand apart in the source and are kept apart here.

How the values were obtained:
PRMT1 [1] = target: T1, PRMT1 (Homo sapiens, UniProt Q99873); test: Stopped flow fluorescence assay of PRMT1 inhibition ([PRMT1] 0.2 µM, [SAM] 3.5 µM, [H4FL] 0.4 µM); type: biochemical;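 further: Stopped-flow traces of fluorescent H4FL peptide quenched on binding PRMT1 and restored on release, recorded 900 s, averaged over repeated drives and fit to a double-exponential model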
T1 sequence (Q99873 29-371): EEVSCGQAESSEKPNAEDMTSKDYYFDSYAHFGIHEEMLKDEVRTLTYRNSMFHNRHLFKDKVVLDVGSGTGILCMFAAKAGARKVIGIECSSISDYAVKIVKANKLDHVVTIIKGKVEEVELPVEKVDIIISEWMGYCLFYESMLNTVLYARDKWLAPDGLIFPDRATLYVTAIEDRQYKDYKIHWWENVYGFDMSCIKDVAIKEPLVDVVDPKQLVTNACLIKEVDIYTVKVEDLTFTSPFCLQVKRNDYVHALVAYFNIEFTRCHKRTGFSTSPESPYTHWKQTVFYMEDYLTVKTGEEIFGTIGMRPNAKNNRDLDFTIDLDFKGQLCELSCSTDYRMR
From the text: To obtain the IC50 of a specific inhibitor, the relative activities of the enzyme in presence of different concentrations of the inhibitor are required (equation 1).[37] […] By adding different concentrations of the inhibitor to the reaction mixture, the relative activity of the enzyme can be obtained by normalizing K to the reaction rate without the inhibitor, and then calculate the IC50 value using equation 1. In our stopped flow fluorescence assay, the reaction rate of Phase I and Phase II can be obtained by approximating and deriving the double-exponential equation (equation 2). In Phase I, during a very short period of time (where t is small), the curve is nearly linear, and the exponential equation can be approximately described as F1 = a · (−k1) · t. Therefore, the derivation of F1 equals –k1∙a, which is the slope of Phase I. Similarly, the curve of Phase II at early stage can be approximately described as F2 = b · (−k2) · t. This derivation of F2 equals –k2∙b, which is the slope of Phase II. The slopes at various inhibitor concentrations, normalized to the slope in the absence of inhibitor, can be used to obtain the corresponding relative enzyme activity from which the potency value (IC50) of the inhibitor can be calculated with equation 1.
(§1) In a stopped flow fluorescence assay, the binding of H4FL to PRMT1 (or the PRMT1—cofactor complex) quenches the peptide fluorescence, while release of the peptide restores the fluorescence. […] The widths of the entrance and exit slits of the monochromator were set to 0.5 mm. An equal volume of samples from two syringes was driven into the observation cell for mixing measurements. The H4FL concentration in all experiments was 0.4 μM. […] The fluorescent signal was recorded for 900 seconds, with 10,000 data points in total. Data from four to six drives were collected and averaged for each curve.
After averaging the shot data, the association time courses were fitted to a double-exponential function (equation 2) using GraphPad Prism (CA, USA). […] F is the fluorescence intensity at time t, k1, and k2 are the rate constants for Phase I and Phase II, a is the amplitude of the fluorescence change for k1, and b is the amplitude of the fluorescence change for k2. Simulation curves based on the values of a, b, k1, and k2 at fixed c = 1 were produced using Matlab. The IC50 value of inhibitors is determined by equation 1 using GraphPad Prism (CA, USA).

PRMT6 = system: PRMT6; set-up: method as in PMID 24564570; conditions: cited from earlier work
PRMT5 = system: PRMT5; set-up: method as in PMID 24564570; conditions: cited from earlier work
CARM1 = system: CARM1; set-up: method as in PMID 24564570; conditions: cited from earlier work
PRMT1 [2] = target: T1, PRMT1
From the text: We plotted the values of a · k1 or −b · k2 against the SAM concentration (Fig. 3c, d).
as §1
After averaging the shot data, the association time courses were fitted to a double-exponential function (equation 2) using GraphPad Prism (CA, USA). […] F is the fluorescence intensity at time t, k1, and k2 are the rate constants for Phase I and Phase II, a is the amplitude of the fluorescence change for k1, and b is the amplitude of the fluorescence change for k2. Simulation curves based on the values of a, b, k1, and k2 at fixed c = 1 were produced using Matlab.

PRMT1 [3] = conditions: cited from earlier work
PRMT1 [4] = system: PRMT1; set-up: method as in earlier work; conditions: binary binding to PRMT1; ref 2 (supplement; Feng et al. 2011); cited from earlier work

N=C(N)c1ccc(-c2ccc(-c3ccc(C(=N)N)cc3)o2)cc1 [DB75, furamidine]
mechanism of inhibition suggested by Phase I/Phase II pattern (PRMT1 [1]): substrate-competitive inhibitor | -b·k2 (slope of Phase II) (PRMT1 [1]; [DB75] 2.5 µM): 0.0008427 ± 1.61e-06 s⁻¹ | a (amplitude, Phase I) (PRMT1 [1]; [DB75] 2.5 µM): 0.1608 ± 3.86E-04 | a·k1 (slope of Phase I) (PRMT1 [1]; [DB75] 2.5 µM): 0.00951 ± 4.83e-05 s⁻¹ | b (amplitude, Phase II) (PRMT1 [1]; [DB75] 2.5 µM): -0.203 ± 1.66E-04 | k1 (rate constant, Phase I) (PRMT1 [1]; [DB75] 2.5 µM): 0.05913 ± 2.65E-04 s^-1 | k2 (rate constant, Phase II) (PRMT1 [1]; [DB75] 2.5 µM): 0.004151 ± 7.18E-06 s^-1 | -b·k2 (slope of Phase II) (PRMT1 [1]; [DB75] 5 µM): 0.0005995 ± 1.19e-06 s⁻¹ | a (amplitude, Phase I) (PRMT1 [1]; [DB75] 5 µM): 0.1114 ± 3.10E-04 | a·k1 (slope of Phase I) (PRMT1 [1]; [DB75] 5 µM): 0.00741 ± 4.25e-05 s⁻¹ | b (amplitude, Phase II) (PRMT1 [1]; [DB75] 5 µM): -0.14 ± 1.20E-04 | k1 (rate constant, Phase I) (PRMT1 [1]; [DB75] 5 µM): 0.06653 ± 3.34E-04 s^-1 | k2 (rate constant, Phase II) (PRMT1 [1]; [DB75] 5 µM): 0.004282 ± 7.68E-06 s^-1 | -b·k2 (slope of Phase II) (PRMT1 [1]; [DB75] 7.5 µM): 0.0005125 ± 1.42e-06 s⁻¹ | a (amplitude, Phase I) (PRMT1 [1]; [DB75] 7.5 µM): 0.1285 ± 3.57E-04 | a·k1 (slope of Phase I) (PRMT1 [1]; [DB75] 7.5 µM): 0.00616 ± 3.66e-05 s⁻¹ | b (amplitude, Phase II) (PRMT1 [1]; [DB75] 7.5 µM): -0.1789 ± 1.33E-04 | k1 (rate constant, Phase I) (PRMT1 [1]; [DB75] 7.5 µM): 0.04791 ± 2.52E-04 s^-1 | k2 (rate constant, Phase II) (PRMT1 [1]; [DB75] 7.5 µM): 0.002865 ± 7.66E-06 s^-1 | -b·k2 (slope of Phase II) (PRMT1 [1]; [DB75] 10 µM): 0.0003506 ± 2.59e-06 s⁻¹ | a (amplitude, Phase I) (PRMT1 [1]; [DB75] 10 µM): 0.06466 ± 3.90E-04 | a·k1 (slope of Phase I) (PRMT1 [1]; [DB75] 10 µM): 0.0024 ± 3.23e-05 s⁻¹ | b (amplitude, Phase II) (PRMT1 [1]; [DB75] 10 µM): -0.07628 ± 3.14E-04 | k1 (rate constant, Phase I) (PRMT1 [1]; [DB75] 10 µM): 0.03706 ± 4.47E-04 s^-1 | k2 (rate constant, Phase II) (PRMT1 [1]; [DB75] 10 µM): 0.004596 ± 2.82E-05 s^-1 | -b·k2 (slope of Phase II) (PRMT1 [1]; [DB75] 20 µM): 0.00011 ± 4.39e-06 s⁻¹ | a (amplitude, Phase I) (PRMT1 [1]; [DB75] 20 µM): 0.02855 ± 5.16E-04 | a·k1 (slope of Phase I) (PRMT1 [1]; [DB75] 20 µM): 0.000854 ± 2.84e-05 s⁻¹ | b (amplitude, Phase II) (PRMT1 [1]; [DB75] 20 µM): -0.01837 ± 5.38E-04 | k1 (rate constant, Phase I) (PRMT1 [1]; [DB75] 20 µM): 0.02992 ± 8.36E-04 s^-1 | k2 (rate constant, Phase II) (PRMT1 [1]; [DB75] 20 µM): 0.005985 ± 1.62E-04 s^-1 | -b·k2 (slope of Phase II) (PRMT1 [1]; [DB75] 40 µM): 0 s⁻¹ | a (amplitude, Phase I) (PRMT1 [1]; [DB75] 40 µM): 0.009937 ± 5.73E-04 | a·k1 (slope of Phase I) (PRMT1 [1]; [DB75] 40 µM): 0.00133 ± 0.000128 s⁻¹ | k1 (rate constant, Phase I) (PRMT1 [1]; [DB75] 40 µM): 0.1335 ± 1.03E-02 s^-1 | inhibition of Phase II (PRMT1 [1]; [DB75] above 10 µM): almost fully inhibited | inhibition selectivity for PRMT1 over PRMT6 (PRMT6): 30 fold | inhibition selectivity for PRMT1 over PRMT5 (PRMT5): more than 15 fold | inhibition selectivity for PRMT1 over CARM1 (CARM1): 42 fold

C[S+](CC[C@H](N)C(=O)[O-])C[C@H]1O[C@@H](n2cnc3c(N)ncnc32)[C@H](O)[C@@H]1O (some centres unmarked) [SAM, S-adenosylmethionine]
-b·k2 (slope of Phase II) (PRMT1 [2]; [SAM] 1.5 µM): 0.0002 ± 9.72e-07 s⁻¹ | a (amplitude, Phase I) (PRMT1 [2]; [SAM] 1.5 µM): 0.0482 ± 2.31E-04 | a·k1 (slope of Phase I) (PRMT1 [2]; [SAM] 1.5 µM): 0.00212 ± 2.2e-05 s⁻¹ | b (amplitude, Phase II) (PRMT1 [2]; [SAM] 1.5 µM): -0.07363 ± 8.97E-05 | k1 (rate constant, Phase I) (PRMT1 [2]; [SAM] 1.5 µM): 0.04402 ± 4.06E-04 s^-1 | k2 (rate constant, Phase II) (PRMT1 [2]; [SAM] 1.5 µM): 0.002713 ± 1.28E-05 s^-1 | -b·k2 (slope of Phase II) (PRMT1 [2]; [SAM] 3.5 µM): 0.000878 ± 2.58e-06 s⁻¹ | a (amplitude, Phase I) (PRMT1 [2]; [SAM] 3.5 µM): 0.0846 ± 3.83E-04 | a·k1 (slope of Phase I) (PRMT1 [2]; [SAM] 3.5 µM): 0.00678 ± 6.58e-05 s⁻¹ | b (amplitude, Phase II) (PRMT1 [2]; [SAM] 3.5 µM): -0.1161 ± 2.14E-04 | k1 (rate constant, Phase I) (PRMT1 [2]; [SAM] 3.5 µM): 0.08016 ± 6.88E-04 s^-1 | k2 (rate constant, Phase II) (PRMT1 [2]; [SAM] 3.5 µM): 0.007565 ± 1.73E-05 s^-1 | -b·k2 (slope of Phase II) (PRMT1 [2]; [SAM] 7.5 µM): 0.00141 ± 4.46e-06 s⁻¹ | a (amplitude, Phase I) (PRMT1 [2]; [SAM] 7.5 µM): 0.1529 ± 1.79E-03 | a·k1 (slope of Phase I) (PRMT1 [2]; [SAM] 7.5 µM): 0.0272 ± 0.000547 s⁻¹ | b (amplitude, Phase II) (PRMT1 [2]; [SAM] 7.5 µM): -0.2054 ± 3.40E-04 | k1 (rate constant, Phase I) (PRMT1 [2]; [SAM] 7.5 µM): 0.1778 ± 2.91E-03 s^-1 | k2 (rate constant, Phase II) (PRMT1 [2]; [SAM] 7.5 µM): 0.006848 ± 1.85E-05 s^-1 | -b·k2 (slope of Phase II) (PRMT1 [2]; [SAM] 15 µM): 0.00313 ± 1.01e-05 s⁻¹ | a (amplitude, Phase I) (PRMT1 [2]; [SAM] 15 µM): 0.1992 ± 2.65E-03 | a·k1 (slope of Phase I) (PRMT1 [2]; [SAM] 15 µM): 0.0493 ± 0.00109 s⁻¹ | b (amplitude, Phase II) (PRMT1 [2]; [SAM] 15 µM): -0.2664 ± 5.21E-04 | k1 (rate constant, Phase I) (PRMT1 [2]; [SAM] 15 µM): 0.2476 ± 4.40E-03 s^-1 | k2 (rate constant, Phase II) (PRMT1 [2]; [SAM] 15 µM): 0.01175 ± 3.03E-05 s^-1 | Km (PRMT1 [3]; read-out: Km of SAM on H4FL): 3.1 ± 0.46 µM

acetyl-SGRGKGGKGK(FL)GKGGAKRHRK [H4FL]
kcat (PRMT1 [3]; PRMT1 catalysis): 0.00717 ± 0.00017 s⁻¹ | Km (PRMT1 [3]; PRMT1 catalysis, read-out: Km of peptide substrate): 0.5 ± 0.05 µM | koff (PRMT1 [4]): 333 s⁻¹ | kon (PRMT1 [4]): 4e+07 M⁻¹ s⁻¹
